Assay: Scavenging activity against DPPH
Assay type: functional

CC1=NN(c2ccccc2)C(=O)C1 [EDARAVONE]
IC50: 29.3 uM l-1
